The experiment has as its system 5×FAD transgenic mice. In words: Morris water maze test of spatial learning and memory in 5×FAD transgenic mice. In kind it is in vivo. From the text: Animals: 5×FAD transgenic mice, male, SPF grade, initial body weight of 25-35 g; provided by Zhang Cheng Laboratory of Peking University. Male 5×FAD transgenic mice produced by breeding 5×FAD transgenic mice with WT mice and their littermate WT mice were used for the experiments, weighing 27-35 g. The 5×FAD transgenic mice were used as acute AD mouse model, the mice could develop AD pathological features at two or three months old, and behavioral changes appeared at five months old. The mice were administered at four months old, and after continuous administration for two months, the spatial learning and memory abilities of the mice were tested by water maze.
(1) Administration: 4-month-old mice were divided into four groups, namely WT (physiological saline), 5×FAD (physiological saline), 5×FAD (YL-IPA08, 0.3 mg/kg), 5×FAD (YL-IPA08, 1 mg/kg), intragastrically (i.g.) administered, once a day. After continuous administration for 8 weeks, the spatial learning and memory ability of the mice were tested by Morris water maze.
(2) Morris water maze test: The Morris water maze test was performed after 8 weeks of the administration of YL-IPA08 (0.3, 1 mg/kg). The water maze consisted of a circular stainless steel pool with a diameter of 120 cm and a depth of 60 cm, and the diameter of the escape platform was 10 cm. The day before the test, the mice were allowed to swim in the water maze for 30 s-60 s to acclimate to the environment. During the training, the mice were allowed to swim freely for 60 s to find the platform. If the mice found the hidden platform autonomously, they were allowed to stay there for 30 seconds, and then taken out. If the mice could not find the platform autonomously, they were guided onto the platform and allowed to stay there for 30 seconds, and then taken out. Training was performed twice a day for 5-7 days until the latency of WT mice to find the platform no longer decreased, and the latency, distance and path of the mice to find the hidden platform in the water maze were recorded. The test was performed 24 hours after the last training session, in which the platform was removed, and the mice were allowed to explore freely in the water maze for 1 minute, and the number of times the mice crossed the position of the platform and the time they stayed in the quadrant of the platform were recorded. There were 8-10 mice per group.
All data were presented by x±SEM. Data statistics and analysis were performed using GraphPad Prism 6.0. Significant differences were assessed by unpaired Student's t test, one-way ANOVA or two-way ANOVA followed by Tukey's multiple comparison test.

Where [1] appears, read: 5×FAD transgenic mice, YL-IPA08 0.3, 1 mg/kg i.g. once a day for 8 weeks, 6 days training, vs solvent control group of 5×FAD mice.

Regarding `CCN(Cc1ccccn1)C(=O)Cc1c(-c2ccc(Cl)c(Cl)c2)nc2cc(C)ccn12.Cl` [YL-IPA08, N-ethyl-N-(2-pyridylmethyl)-2-[2-(3,4-dichlorophenyl)-7-methyl-imidazo[1,2-a]pyridin-3-yl]-acetamide·hydrochloride], the “learning and cognitive impairment in 5×FAD mice (overall conclusion)” value (5×FAD mice, 0.3, 1 mg/kg i.g. once a day for 8 weeks, Morris water maze) was “can improve learning and cognitive impairment”. Further, the “average swimming speed (test period)” value (5×FAD transgenic mice, 0.3, 1 mg/kg i.g. once a day for 8 weeks, comparison of the mice in each group) was “not significantly different”. Under “5×FAD transgenic mice, 0.3, 1 mg/kg i.g. once a day for 8 weeks, test 24 hours after last training, platform removed, 1 minute, vs solvent control group”, the “number of times the mice crossed the platform (test period)” value is “significantly higher”. In addition, under setting [1], the “distance to find the platform (water maze training)” value is “significantly shortened” and the “latency to find the platform (water maze training)” value is listed as “significantly shortened”.

Values taken from patent US20230293537A1, “USE OF ACETAMIDE DERIVATIVE IN PREVENTION AND TREATMENT OF ALZHEIMER'S DISEASE” (ACADEMY OF MILITARY MEDICAL SCIENCES, priority 2020, published 2023).
